How the values were obtained:
[1] = system: mice writhing caused by acetic acid; assay: Mice writhing caused by acetic acid; conditions: for Writhing times: 1 h before 0.7% acetic acid ip, within 20 min; for Latent time: time to first writhing
Procedure: Each compound was prepared into a suspension by 0.5% sodium carboxymethylcellulose respectively, and then set according to the dose, and each administration group was administered intragastrically; the model group was administered intragastrically an equal volume of 0.5% sodium carboxymethylcellulose.
Mice were intraperitoneally injected with acetic acid to cause a large area and more lasting painful stimuli in deep enterocoelia, causing mice to produce writhing responses. After being administered for 1 h, each dose group was intraperitoneally injected with 0.7% acetic acid-normal saline solution (0.1 ml/10 g).
The time (pain latent time) that the mice started to appear writhing after being intraperitoneally injected with acetic acid was recorded.
The writhing response times of each mouse within 20 min were recorded after injecting acetic acid to cause pain, and then, the writhing inhibition ratio of each administration group was calculated.
Writhing inhibition ratio = [(writhing times of the control group -writhing times of the administration group)/writhing times of the control group] × 100%
Experimental data is shown by x±s and subjected to variance analysis by SPSS 15.0 software.

[2] = system: mice pain response induced by hot plate; assay: Mice pain response induced by hot plate; type: in vivo, ICR mice; conditions: hot plate 55°C
Procedure: Female ICR mice (20±2) g were placed on an intelligent hot plate at 55±0.5° C., and latency (s) that the plantar of mice touched the hot plate until the occurrence of a hind paws licking response served as a pain threshold indicator; the mice (response latency <5 s or >30 s) or jumping mice were eliminated.
Grouping and administration were the same as those in Example 40.
The mice were continuously administered intragastrically for 7 consecutive days; the pain threshold of each group of mice was respectively determined once at 30, 60, 90 and 120 min after the final administration; the pain threshold greater than 60 s was calculated by 60 s.

[3] = system: mice with inflammatory pain; assay: Pain threshold of mice with inflammatory pain (complete Freund's adjuvant); type: in vivo, SD mice; conditions: complete Freund's adjuvant paw model
Procedure: […] (180±20) g were injected with a complete Freund’s adjuvant (50 µL/piece) at the right rear plantar of mice, and mice in the control group were injected with the corresponding volume of 0.5% sodium carboxymethylcellulose to establish a paw edema inflammatory pain model. After modeling, the mice were administered for 7 d continuously, and administered intragastrically once per day. Pain thresholds (s) of the mice were respectively determined on the 1st, 3rd and 7th day before administration and after modeling at different periods of time.
Grouping and administration were the same as those of Example 40.

[4] = system: reserpine-induced mice migraine; assay: Reserpine-induced mice migraine; type: in vivo, ICR mice; conditions: for Blood coagulation time: reserpine 0.2 mg/kg sc mice, 1 h after final administration; for brain tissue 5-HT / Times of tail suspension (struggling times within 2 min): reserpine mice; for Times of tail suspension (struggling times within 2 min): 9th day
Procedure: The mice in the blank control group and model group were administered intragastrically via a solvent from the 5th day after modeling, and the rest groups of mice were respectively administered corresponding medicaments and doses for intragastric administration for 10 consecutive days; 1 h later after the final administration, the mice were weighed; blood was taken at inner canthus to detect blood coagulation time; whole blood was taken, and cerebrum was taken on an ice and preserved at -20° C. for the subsequent experiment.
Behavioral test: tail suspension activity was performed; the position 1 cm away from the tail of the mice was glued by an adhesive tape on the 9th day of the test, and the adhesive tape was penetrated by a steel needle, and hung in a dark box such that the mice were hung upside down; then the mice struggling times (total number of overturning from hanging) within 2 min were observed.
The mice were weighed 1 h later after the final administration; blood of inner canthus was taken via a capillary to detect the blood coagulation time.
Blood was taken to detect the content of 5-HT in serum via high-performance liquid chromatography. Cerebrum was taken on an ice and precooled and cleaned slightly with 0.5% sodium carboxymethylcellulose, and then sucked dry with a filter paper, and placed into a cryogenic tube, and preserved at -20° C. for further use, then the content of 5-HT in brain tissues was detected by high performance liquid chromatography.
5-HT test method: a sample was precipitated with 10% perchloric acid solution according to 1:1, and then centrifuged to take supernatant for test. Chromatographic conditions: the chromatographic column is a SHIMADZU VP-ODS C18 column (250*4.6 mm, 5 um), the mobile phase is a methanol-0.01 mol/L potassium acetate buffer solution (10:90, V/V, PH is adjusted to 4.00 with 0.2 mol/L citric acid) for gradient elution; the column temperature is 25° C., flow rate is 1.00 ml/min and test wavelength is 275 nm.

Structure (SMILES): O=C(Nc1ccc(Cl)cc1)C1CCN(C(=O)c2ccc(O)cc2)CC1 [MAGLZ-II-10]
- Writhing times ([1]; high dose 30 mg/kg ig): 24.8±11.1^∗
- Latent time ([1]; high dose 30 mg/kg ig): 306.4±90.2^∗ s
- Writhing times ([1]; low dose 7.5 mg/kg ig): 34.0±9.1
- Latent time ([1]; low dose 7.5 mg/kg ig): 235.4 ± 59.6 s
- Writhing times ([1]; middle dose 15 mg/kg ig): 32.8±11.6
- Latent time ([1]; middle dose 15 mg/kg ig): 246.2 ± 69.5 s
- Pain threshold ([2]; high dose 30 mg/kg ig 7 d, 30 min after final administration): 17.73 ± 6.20 s
- Pain threshold ([2]; high dose 30 mg/kg ig 7 d, 60 min): 19.77 ± 6.73 s
- Pain threshold ([2]; high dose 30 mg/kg ig 7 d, 90 min): 25.25 ± 7.01 s
- Pain threshold ([2]; high dose 30 mg/kg ig 7 d, 120 min): 24.90 ± 5.73 s
- Pain threshold ([2]; low dose 7.5 mg/kg ig 7 d, 30 min after final administration): 16.37 ± 6.00 s
- Pain threshold ([2]; low dose 7.5 mg/kg ig 7 d, 60 min): 17.93 ± 5.75 s
- Pain threshold ([2]; low dose 7.5 mg/kg ig 7 d, 90 min): 19.24 ± 4.72 s
- Pain threshold ([2]; low dose 7.5 mg/kg ig 7 d, 120 min): 19.14 ± 4.63 s
- Pain threshold ([2]; middle dose 15 mg/kg ig 7 d, 30 min after final administration): 16.67 ± 5.97 s
- Pain threshold ([2]; middle dose 15 mg/kg ig 7 d, 60 min): 18.79 ± 5.95 s
- Pain threshold ([2]; middle dose 15 mg/kg ig 7 d, 90 min): 22.43 ± 5.31 s
- Pain threshold ([2]; middle dose 15 mg/kg ig 7 d, 120 min): 20.60 ± 4.64 s
- Pain threshold ([3]; high dose 30 mg/kg ig once per day, 0 d): 12.93 ± 2.26 s
- Pain threshold ([3]; high dose 30 mg/kg ig once per day, 1 d): 5.67 ± 0.93 s
- Pain threshold ([3]; high dose 30 mg/kg ig once per day, 3 d): 7.95 ± 0.66 s
- Pain threshold ([3]; high dose 30 mg/kg ig once per day, 7 d): 8.93 ± 0.61 s
- Pain threshold ([3]; low dose 7.5 mg/kg ig once per day, 0 d): 12.71 ± 2.47 s
- Pain threshold ([3]; low dose 7.5 mg/kg ig once per day, 1 d): 5.59 ± 0.89 s
- Pain threshold ([3]; low dose 7.5 mg/kg ig once per day, 3 d): 7.15 ± 0.59 s
- Pain threshold ([3]; low dose 7.5 mg/kg ig once per day, 7 d): 8.33 ± 0.57 s
- Pain threshold ([3]; middle dose 15 mg/kg ig once per day, 0 d): 12.77 ± 2.48 s
- Pain threshold ([3]; middle dose 15 mg/kg ig once per day, 1 d): 5.62 ± 0.84 s
- Pain threshold ([3]; middle dose 15 mg/kg ig once per day, 3 d): 7.18 ± 0.55 s
- Pain threshold ([3]; middle dose 15 mg/kg ig once per day, 7 d): 8.36 ± 0.59 s
- Blood coagulation time ([4]; high dose 30 mg/kg ig 10 d): 148.00±30.23 S
- Blood coagulation time ([4]; low dose 7.5 mg/kg ig 10 d): 113.25±23.31 S
- Blood coagulation time ([4]; middle dose 15 mg/kg ig 10 d): 125.25±19.31 S
- brain tissue 5-HT ([4]; high dose 30 mg/kg ig 10 d): 0.90 ± 0.21 nmol/g
- Times of tail suspension (struggling times within 2 min) ([4]; high dose 30 mg/kg ig): 11.63±1.85
- brain tissue 5-HT ([4]; low dose 7.5 mg/kg ig 10 d): 0.85 ± 0.20 nmol/g
- Times of tail suspension (struggling times within 2 min) ([4]; low dose 7.5 mg/kg ig): 9.25±2.66
- brain tissue 5-HT ([4]; middle dose 15 mg/kg ig 10 d): 1.05 ± 0.14 nmol/g
- Times of tail suspension (struggling times within 2 min) ([4]; middle dose 15 mg/kg ig): 10.63±1.19

Reference: patent publication US20230090255A1, “MAGL INHIBITOR, PREPARATION METHOD THEREFOR AND USE THEREOF” (LUNAN PHARMACEUTICAL GROUP CORPORATION, priority 2019, published 2023)
